Data as given in US8962600B2, “Neuroprotective compounds and their use” (The Medical College of Wisconsin, Inc., priority 2009, dated 2015).

Tests used:
3-nitrotyrosine (3-NT) = experiment: 3-nitrotyrosine expression in substantia nigra, Western blot and immunostaining; assay type: in vivo, C57BL/6 mice
Method: For checking inflammatory and oxidative stress markers, mice were gavaged diapocynin (300 mg/kg dose) 1 day before MPTP treatment (pre-treatment) and continued for another 4 days of co-treatment with MPTP. In the sub-acute MPTP regimen, MPTP (25 mg/kg) was injected intraperitoneally once per day from day 2 to day 7. Control mice received saline at the same dosage.
Four days after MPTP treatment, mice were perfused with 4% paraformaldehyde (PFA) and post-fixed with PFA and 30% sucrose, respectively. Next, fixed brains were cut into 30 μm sections and kept in 30% sucrose-ethylene glycol solutions at −20° C. On the day of staining, sections were rinsed with phosphate-buffered saline (PBS) and incubated with different primary antibodies, including anti-IBA-1 (DAKO, Carpinteria, Calif.), anti-GFAP (Millipore, Billerica, Mass.), anti-iNOS (Santa Cruz Biotechnology, Santa Cruz, Calif.), anti-3NT (Millipore), anti-4HNE (R&D Systems, Minneapolis, Minn.) and anti-gp91phox (Santa Cruz Biotechnology) for overnight at 4° C. Appropriate secondary antibodies (Alexa Fluor 488, 594, or 555 from Invitrogen, Carlsbad, Calif.) were used followed by incubation with 10 μg/ml Hoechst 33342 for 5 min at room temperature to stain the nucleus. Sections were viewed under a Nikon inverted fluorescence microscope (model TE-2000U; Nikon, Tokyo, Japan). […]

BV2 microglial cells = experiment: LPS-induced iNOS activation (nitrite, Griess reagent) in BV2 microglial cells; assay type: cell-based, mouse; details: 30 min pretreatment
Method: (§1) Two cell models of neuroinflammation were used to evaluate the anti-neuroinflammatory property of diapocynin including the mouse BV2 microglial cell line, as well as primary microglia isolated from mouse brains. BV2 cells were obtained from the American Tissue Culture Collection. BV2 cells were maintained in RPMI containing 10% FBS and 100 units of pen/strep at 37° C. and 5% CO2. For treatments, RPMI containing 2% FBS and 100 units of pen/strep was used.
Inducible nitric oxide synthase (iNOS or NOS2) activation was assessed by measuring nitrite levels using Griess reagent in a 96-well format (70-72). Each well contained 40,000 BV2 cells or 100,000 primary microglia. BV2 cells were cultured in 150 μl of RPMI containing 10% FBS and pen/strep, and the primary microglia were cultured in DMEM-F12 containing 10% FBS, pen/strep, sodium pyruvate (S/P), Q, and NEAAs. One day after culturing, cells were replaced with 150 μl of their respective complete media containing only 2% FBS. Both cell types were pretreated with diapocynin (10 μM) and apocynin (100 μM) for 30 min before LPS stimulation (1 μg/ml LPS for BV2 cells and 100 ng/ml for primary microglia), and the plates were incubated at 37° C. After 24 hr at 37° C., 100 μl of supernatant were removed and placed into a new 96 well plate, to which 100 μl of Griess reagent were added. The plate was shaken on a plate shaker for 10 min before being read in a plate reader at 540 nm.
This example generally followed the cell culture, treatment, and analysis steps of Example 4 above.
Diapocynin diacetate (diapodiacetate or diapo diace) suppresses LPS-induced NOS-2 in BV2 microglial cells (FIG. 21). BV-2 cells were plated in 96 well plates, 40,000 cells per well, and treated in 150 μl of RPMI containing 2% heat inactivated FBS and penicillin/streptomycin. Diapo diacetate was used on the cells as a 30 min pretreatment, then LPS (1 μg/ml) was added. All treatments were allowed to incubate at 37° C. for 24 hr, starting from the addition of LPS. One hundred microliter aliquots of supernatant from each well were combined with 100 μl of Griess reagent (Sigma) in a 96-well plate and allowed to shake for 10 minutes before being read on the plate reader. The percent nitrite level for the treatments compared to the control was graphed.

NOS2 = experiment: LPS-induced NOS2 protein expression in BV2 cells, Western blot; assay type: cell-based, mouse; details: diapocynin 10 μM 30 min pretreatment, LPS 1 μg/ml 24 hr, back to basal level or below
Method: as §1
BV2 cell lysates containing equal amounts of protein were loaded in each lane and separated on a 10% SDS-PAGE gel. After separation, the protein was transferred to a nitrocellulose membrane. Non-specific binding sites were blocked with Li-cor blocking buffer for 45 min. The membranes were then treated with primary antibodies directed against NOS2 (mouse monoclonal 1:200) and p67phox (rabbit polyclonal 1:200). To confirm equal amounts of protein were loaded, membranes were also probed for β-actin with a β-actin antibody (dilution of 1:10,000). Secondary antibodies, donkey anti-mouse (Invitrogen) and conjugated anti-rabbit IgG (Rockland), were used at a dilution of 1:10,000 for 1 hr at room temperature. The membranes were imaged and captured using a Li-COR Odyssey infrared imaging system and software.

EC50 (BV2 microglial cells; Mus musculus, BV-2 cells, LPS 1 μg/ml, Griess reagent, non-linear regression of dose response curve, read-out: EC50, block of LPS-induced iNOS activation (nitrite level)): 7.76 µM
Structure (SMILES): COc1cc(C(C)=O)cc(-c2cc(C(C)=O)cc(OC)c2O)c1O [diapocynin]
MPTP-induced expression of 3-NT in substantia nigra (3-nitrotyrosine (3-NT); diapocynin 300 mg/kg gavage, MPTP 25 mg/kg i.p.): attenuated
TH positive cells colocalized with 3-NT (3-nitrotyrosine (3-NT); double-labeling, MPTP-treated mice that also received diapocynin 300 mg/kg): very few
attenuating LPS-induced iNOS activation, compared with apocynin 100 μM (BV2 microglial cells; BV2 cells, diapocynin 10 μM, LPS 1 μg/ml 24 hr): just as effective
reducing LPS-induced NOS2 protein expression (NOS2): extremely effective
